Data: patent US20230085307A1, “PYRIDAZINONE COMPOUND AND HERBICIDE” (NISSAN CHEMICAL CORPORATION, priority 2019, published 2023)

How the values were obtained:
southern crabgrass [1] = experiment: Test Example 5: herbicidal effect by foliage application, plastic box (Table 20, symbol F); type: in vivo, southern crabgrass (Digitaria ciliaris); conditions: foliage application, AAH 320 g/ha, evaluated three weeks after application
Procedure, shortened: (§1)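 Plants sown in sterilized diluvial soil and grown 14 days in a greenhouse at 25° C to 30° C, then sprayed on the foliage with the compound's emulsion diluted in water to a predetermined herbicide amount. Injury to weeds and crops scored three weeks after application on a visual rating scale.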

windgrass [2] = experiment: Test Example 5: herbicidal effect by foliage application, plastic box (Table 20, symbol L); type: in vivo, windgrass (Apera spica-venti); conditions: foliage application, AAH 320 g/ha, evaluated three weeks after application
Procedure, shortened: as §1

windgrass [3] = experiment: Test Example 4: herbicidal effect by soil treatment (Table 19, symbol L); type: in vivo, windgrass (Apera spica-venti); conditions: amount of applied herbicide 320 g/ha
Procedure, shortened: (§2)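 Three weeks of greenhouse growth at 25° C. to 30° C. followed a uniform surface spray of water-diluted emulsion at a predetermined herbicide amount. Seeds had been sown beforehand under about 1.5 cm of sterilized diluvial soil. Grading followed criteria set out in an earlier test.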

Italian ryegrass [4] = experiment: Test Example 4: herbicidal effect by soil treatment (Table 19, symbol K); type: in vivo, Italian ryegrass (Lolium multiflorum); conditions: amount of applied herbicide 320 g/ha
Procedure, shortened: as §2

lambsquarters [5] = experiment: Test Example 5: herbicidal effect by foliage application, plastic box (Table 20, symbol O); type: in vivo, lambsquarters (Chenopodium album); conditions: foliage application, AAH 320 g/ha, evaluated three weeks after application
Procedure, shortened: as §1

barnyard grass [6] = experiment: Test Example 4: herbicidal effect by soil treatment (Table 19, symbol H); type: in vivo, barnyard grass (Echinochloa crus-galli); conditions: amount of applied herbicide 320 g/ha
Procedure, shortened: as §2

velvetleaf [7] = experiment: Test Example 4: herbicidal effect by soil treatment (Table 19, symbol M); type: in vivo, velvetleaf (Abutilon theophrasti); conditions: amount of applied herbicide 320 g/ha
Procedure, shortened: as §2

green foxtail [8] = experiment: Test Example 5: herbicidal effect by foliage application, plastic box (Table 20, symbol G); type: in vivo, green foxtail (Setaria viridis); conditions: foliage application, AAH 320 g/ha, evaluated three weeks after application
Procedure, shortened: as §1

southern crabgrass [9] = experiment: Test Example 4: herbicidal effect by soil treatment (Table 19, symbol F); type: in vivo, southern crabgrass (Digitaria ciliaris); conditions: amount of applied herbicide 320 g/ha
Procedure, shortened: as §2

Chinese sprangletop = experiment: Test Example 3: herbicidal effect by foliage application, Wagner pot (Table 18, symbol D); type: in vivo, chinese sprangletop (Leptochloa chinensis); conditions: amount of applied herbicide 320 g/ha
Procedure, shortened: (§3)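 Plants were sown in alluvial soil held under 0.1–0.5 cm standing water and grown 14 days in a greenhouse at 25–30 °C. An emulsifiable formulation, water-diluted to the set dose, was then sprayed onto the foliage, and effects were scored three weeks later using previously defined criteria.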

blackgrass [10] = experiment: Test Example 4: herbicidal effect by soil treatment (Table 19, symbol J); type: in vivo, blackgrass (Alopecurus myosuroides); conditions: amount of applied herbicide 320 g/ha
Procedure, shortened: as §2

wild oat [11] = experiment: Test Example 4: herbicidal effect by soil treatment (Table 19, symbol I); type: in vivo, wild oat (Avena fatua); conditions: amount of applied herbicide 320 g/ha
Procedure, shortened: as §2

rice flat sedge = experiment: Test Example 3: herbicidal effect by foliage application, Wagner pot (Table 18, symbol E); type: in vivo, rice flat sedge (Cyperus iria); conditions: amount of applied herbicide 320 g/ha
Procedure, shortened: as §3

persian speedwell [12] = experiment: Test Example 4: herbicidal effect by soil treatment (Table 19, symbol R); type: in vivo, Persian speedwell (Veronica persica); conditions: amount of applied herbicide 320 g/ha
Procedure, shortened: as §2

barnyard grass [13] = experiment: Test Example 5: herbicidal effect by foliage application, plastic box (Table 20, symbol H); type: in vivo, barnyard grass (Echinochloa crus-galli); conditions: foliage application, AAH 320 g/ha, evaluated three weeks after application
Procedure, shortened: as §1

lambsquarters [14] = experiment: Test Example 4: herbicidal effect by soil treatment (Table 19, symbol O); type: in vivo, lambsquarters (Chenopodium album); conditions: amount of applied herbicide 320 g/ha
Procedure, shortened: as §2

persian speedwell [15] = experiment: Test Example 5: herbicidal effect by foliage application, plastic box (Table 20, symbol R); type: in vivo, Persian speedwell (Veronica persica); conditions: foliage application, AAH 320 g/ha, evaluated three weeks after application
Procedure, shortened: as §1

Italian ryegrass [16] = experiment: Test Example 5: herbicidal effect by foliage application, plastic box (Table 20, symbol K); type: in vivo, Italian ryegrass (Lolium multiflorum); conditions: foliage application, AAH 320 g/ha, evaluated three weeks after application
Procedure, shortened: as §1

wild oat [17] = experiment: Test Example 5: herbicidal effect by foliage application, plastic box (Table 20, symbol I); type: in vivo, wild oat (Avena fatua); conditions: foliage application, AAH 320 g/ha, evaluated three weeks after application
Procedure, shortened: as §1

barnyard grass [18] = experiment: Test Example 3: herbicidal effect by foliage application, Wagner pot (Table 18, symbol H); type: in vivo, barnyard grass (Echinochloa crus-galli); conditions: amount of applied herbicide 320 g/ha
Procedure, shortened: as §3

chickweed [19] = experiment: Test Example 5: herbicidal effect by foliage application, plastic box (Table 20, symbol P); type: in vivo, common chickweed (Stellaria media); conditions: foliage application, AAH 320 g/ha, evaluated three weeks after application
Procedure, shortened: as §1

blackgrass [20] = experiment: Test Example 5: herbicidal effect by foliage application, plastic box (Table 20, symbol J); type: in vivo, blackgrass (Alopecurus myosuroides); conditions: foliage application, AAH 320 g/ha, evaluated three weeks after application
Procedure, shortened: as §1

green foxtail [21] = experiment: Test Example 4: herbicidal effect by soil treatment (Table 19, symbol G); type: in vivo, green foxtail (Setaria viridis); conditions: amount of applied herbicide 320 g/ha
Procedure, shortened: as §2

redroot pigweed [22] = experiment: Test Example 5: herbicidal effect by foliage application, plastic box (Table 20, symbol N); type: in vivo, redroot pigweed (Amaranthus retroflexus); conditions: foliage application, AAH 320 g/ha, evaluated three weeks after application
Procedure, shortened: as §1

chickweed [23] = experiment: Test Example 4: herbicidal effect by soil treatment (Table 19, symbol P); type: in vivo, common chickweed (Stellaria media); conditions: amount of applied herbicide 320 g/ha
Procedure, shortened: as §2

velvetleaf [24] = experiment: Test Example 5: herbicidal effect by foliage application, plastic box (Table 20, symbol M); type: in vivo, velvetleaf (Abutilon theophrasti); conditions: foliage application, AAH 320 g/ha, evaluated three weeks after application
Procedure, shortened: as §1

redroot pigweed [25] = experiment: Test Example 4: herbicidal effect by soil treatment (Table 19, symbol N); type: in vivo, redroot pigweed (Amaranthus retroflexus); conditions: amount of applied herbicide 320 g/ha
Procedure, shortened: as §2

SMILES	F: southern crabgrass, herbicidal effect (criteria 0-5) (southern crabgrass [1])	L: windgrass, herbicidal effect (criteria 0-5) (windgrass [2])	herbicidal effect on L: windgrass (windgrass [3])	herbicidal effect on K: Italian ryegrass (Italian ryegrass [4])	O: lambsquarters, herbicidal effect (criteria 0-5) (lambsquarters [5])	herbicidal effect on H: barnyard grass (barnyard grass [6])	herbicidal effect on M: velvetleaf (velvetleaf [7])	G: green foxtail, herbicidal effect (criteria 0-5) (green foxtail [8])	herbicidal effect on F: southern crabgrass (southern crabgrass [9])	herbicidal effect on D: Chinese sprangletop (Chinese sprangletop)	herbicidal effect on J: blackgrass (blackgrass [10])	herbicidal effect on I: wild oat (wild oat [11])	herbicidal effect on E: rice flat sedge (rice flat sedge)	herbicidal effect on R: persian speedwell (persian speedwell [12])	H: barnyard grass, herbicidal effect (criteria 0-5) (barnyard grass [13])	herbicidal effect on O: lambsquarters (lambsquarters [14])	R: persian speedwell, herbicidal effect (criteria 0-5) (persian speedwell [15])	K: Italian ryegrass, herbicidal effect (criteria 0-5) (Italian ryegrass [16])	I: wild oat, herbicidal effect (criteria 0-5) (wild oat [17])	herbicidal effect on H: barnyard grass (barnyard grass [18])	also measured
C#CCOc1c(C)nn(C)c(=O)c1-c1c(-c2ccc(OC(F)F)cc2)sc2ccc(F)cc12 [2-301]	0 (Herbicidal rate of 5% or less (almost no effect))	0 (Herbicidal rate of 5% or less (almost no effect))	0 (Herbicidal rate of 5% or less (almost no effect))	0 (Herbicidal rate of 5% or less (almost no effect))	5 (Herbicidal rate of 90% or more (almost completely withered))	0 (Herbicidal rate of 5% or less (almost no effect))	0 (Herbicidal rate of 5% or less (almost no effect))	0 (Herbicidal rate of 5% or less (almost no effect))	0 (Herbicidal rate of 5% or less (almost no effect))	0 (Herbicidal rate of 5% or less (almost no effect))	0 (Herbicidal rate of 5% or less (almost no effect))	0 (Herbicidal rate of 5% or less (almost no effect))	2 (Herbicidal rate of 20% or more and less than 40%)	3 (Herbicidal rate of 40% or more and less than 70%)	0 (Herbicidal rate of 5% or less (almost no effect))	0 (Herbicidal rate of 5% or less (almost no effect))	5 (Herbicidal rate of 90% or more (almost completely withered))	0 (Herbicidal rate of 5% or less (almost no effect))	0 (Herbicidal rate of 5% or less (almost no effect))	3 (Herbicidal rate of 40% or more and less than 70%)	P: chickweed, herbicidal effect (criteria 0-5) (chickweed [19]): 5 (Herbicidal rate of 90% or more (almost completely withered)); J: blackgrass, herbicidal effect (criteria 0-5) (blackgrass [20]): 0 (Herbicidal rate of 5% or less (almost no effect)); herbicidal effect on G: green foxtail (green foxtail [21]): 0 (Herbicidal rate of 5% or less (almost no effect)); N: redroot pigweed, herbicidal effect (criteria 0-5) (redroot pigweed [22]): 3 (Herbicidal rate of 40% or more and less than 70%); herbicidal effect on P: chickweed (chickweed [23]): 0 (Herbicidal rate of 5% or less (almost no effect)); M: velvetleaf, herbicidal effect (criteria 0-5) (velvetleaf [24]): 5 (Herbicidal rate of 90% or more (almost completely withered)); herbicidal effect on N: redroot pigweed (redroot pigweed [25]): 0 (Herbicidal rate of 5% or less (almost no effect))
Cc1nn(C)c(=O)c(-c2c(-c3ccc(OC(F)F)cc3)sc3ccc(F)cc23)c1OCC#N [2-303]	0 (Herbicidal rate of 5% or less (almost no effect))	0 (Herbicidal rate of 5% or less (almost no effect))	0 (Herbicidal rate of 5% or less (almost no effect))	0 (Herbicidal rate of 5% or less (almost no effect))	5 (Herbicidal rate of 90% or more (almost completely withered))	0 (Herbicidal rate of 5% or less (almost no effect))	0 (Herbicidal rate of 5% or less (almost no effect))	5 (Herbicidal rate of 90% or more (almost completely withered))	0 (Herbicidal rate of 5% or less (almost no effect))	4 (Herbicidal rate of 70% or more and less than 90%)	0 (Herbicidal rate of 5% or less (almost no effect))	0 (Herbicidal rate of 5% or less (almost no effect))	3 (Herbicidal rate of 40% or more and less than 70%)	4 (Herbicidal rate of 70% or more and less than 90%)	4 (Herbicidal rate of 70% or more and less than 90%)	0 (Herbicidal rate of 5% or less (almost no effect))	5 (Herbicidal rate of 90% or more (almost completely withered))	3 (Herbicidal rate of 40% or more and less than 70%)	0 (Herbicidal rate of 5% or less (almost no effect))	5 (Herbicidal rate of 90% or more (almost completely withered))	P: chickweed, herbicidal effect (criteria 0-5) (chickweed [19]): 5 (Herbicidal rate of 90% or more (almost completely withered)); J: blackgrass, herbicidal effect (criteria 0-5) (blackgrass [20]): 0 (Herbicidal rate of 5% or less (almost no effect)); herbicidal effect on G: green foxtail (green foxtail [21]): 0 (Herbicidal rate of 5% or less (almost no effect)); N: redroot pigweed, herbicidal effect (criteria 0-5) (redroot pigweed [22]): 5 (Herbicidal rate of 90% or more (almost completely withered)); herbicidal effect on P: chickweed (chickweed [23]): 3 (Herbicidal rate of 40% or more and less than 70%); M: velvetleaf, herbicidal effect (criteria 0-5) (velvetleaf [24]): 5 (Herbicidal rate of 90% or more (almost completely withered)); herbicidal effect on N: redroot pigweed (redroot pigweed [25]): 0 (Herbicidal rate of 5% or less (almost no effect))
CCCC(=O)Oc1c(C)nn(C)c(=O)c1-c1c(-c2ccc(F)cc2F)sc2ccc(F)cc12 [2-343]	5 (Herbicidal rate of 90% or more (almost completely withered))	5 (Herbicidal rate of 90% or more (almost completely withered))	3 (Herbicidal rate of 40% or more and less than 70%)	5 (Herbicidal rate of 90% or more (almost completely withered))	4 (Herbicidal rate of 70% or more and less than 90%)	3 (Herbicidal rate of 40% or more and less than 70%)	3 (Herbicidal rate of 40% or more and less than 70%)	5 (Herbicidal rate of 90% or more (almost completely withered))	3 (Herbicidal rate of 40% or more and less than 70%)	5 (Herbicidal rate of 90% or more (almost completely withered))	2 (Herbicidal rate of 20% or more and less than 40%)	2 (Herbicidal rate of 20% or more and less than 40%)	4 (Herbicidal rate of 70% or more and less than 90%)	5 (Herbicidal rate of 90% or more (almost completely withered))	3 (Herbicidal rate of 40% or more and less than 70%)	2 (Herbicidal rate of 20% or more and less than 40%)	5 (Herbicidal rate of 90% or more (almost completely withered))	5 (Herbicidal rate of 90% or more (almost completely withered))	3 (Herbicidal rate of 40% or more and less than 70%)	5 (Herbicidal rate of 90% or more (almost completely withered))	P: chickweed, herbicidal effect (criteria 0-5) (chickweed [19]): 5 (Herbicidal rate of 90% or more (almost completely withered)); J: blackgrass, herbicidal effect (criteria 0-5) (blackgrass [20]): 4 (Herbicidal rate of 70% or more and less than 90%); herbicidal effect on G: green foxtail (green foxtail [21]): 4 (Herbicidal rate of 70% or more and less than 90%); N: redroot pigweed, herbicidal effect (criteria 0-5) (redroot pigweed [22]): 5 (Herbicidal rate of 90% or more (almost completely withered)); herbicidal effect on P: chickweed (chickweed [23]): 3 (Herbicidal rate of 40% or more and less than 70%); M: velvetleaf, herbicidal effect (criteria 0-5) (velvetleaf [24]): 5 (Herbicidal rate of 90% or more (almost completely withered)); herbicidal effect on N: redroot pigweed (redroot pigweed [25]): 3 (Herbicidal rate of 40% or more and less than 70%)
